The values that follow come from patent publication US7279491B2 (Janssen Pharmaceutica N.V., priority 2002, dated 2007).

The experiment deals with T1, human histamine H3 receptor (Homo sapiens, UniProt Q9Y5N1).
T1 construct: One microgram of supercoiled H3 receptor cDNA was added to the cells and mixed; expressed in transfected cells; membranes
T1 sequence (Q9Y5N1 whole entry): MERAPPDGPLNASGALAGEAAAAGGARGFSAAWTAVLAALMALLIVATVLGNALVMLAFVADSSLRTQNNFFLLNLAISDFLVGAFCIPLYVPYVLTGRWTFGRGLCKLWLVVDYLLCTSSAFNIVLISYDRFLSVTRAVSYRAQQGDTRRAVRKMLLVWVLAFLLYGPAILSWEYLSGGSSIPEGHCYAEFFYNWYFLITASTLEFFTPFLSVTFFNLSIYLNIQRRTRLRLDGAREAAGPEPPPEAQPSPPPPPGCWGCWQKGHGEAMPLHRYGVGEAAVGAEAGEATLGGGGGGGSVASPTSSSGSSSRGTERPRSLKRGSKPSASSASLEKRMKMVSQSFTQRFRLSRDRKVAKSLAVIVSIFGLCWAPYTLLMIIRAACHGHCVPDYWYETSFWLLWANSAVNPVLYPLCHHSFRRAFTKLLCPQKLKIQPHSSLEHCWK
Nature of the experiment: {3H}-N-methylhistamine binding to membranes of histamine H3 receptor-expressing SK-N-MC cells. Conditions: 0.8 nM {3H}-N-methylhistamine, 45 min at 25° C., Ki=(IC50)/(1+({L}/(Kd)), Kd 800 pM). The method, then: Transfection of Cells with Human Histamine Receptor
A 10 cm tissue culture dish with a confluent monolayer of SK-N-MC cells was split two days prior to transfection. Using sterile technique the media was removed and the cells were detached from the dish by the addition of trypsin. One fifth of the cells were then placed onto a new 10 cm dish. Cells were grown in a 37° C. incubator with 5% CO2 in Minimal Essential Media Eagle with 10% Fetal Bovine Serum. After two days cells were approximately 80% confluent. These were removed from the dish with trypsin and pelleted in a clinical centrifuge. The pellet was then re-suspended in 400 μL complete media and transferred to an electroporation cuvette with a 0.4 cm gap between the electrodes. One microgram of supercoiled H3 receptor cDNA was added to the cells and mixed. The voltage for the electroporation was set at 0.25 kV, the capacitance was set at 960 μF. After electroporation the cells were diluted into 10 mL complete media and plated onto four 10 cm dishes. Because of the variability in the efficiency of electroporation, four different concentrations of cells were plated. The ratios used were; 1:20, 1:10, 1:5, with the remainder of the cells being added to the fourth dish. The cells were allowed to recover for 24 h before adding the selection media (complete media with 600 μg/mL G418). After 10 days dishes were analyzed for surviving colonies of cells. Dishes with well-isolated colonies were used. Cells from individual colonies were isolated and tested. SK-N-MC cells were used because they give efficient coupling for inhibition of adenylate cyclase. The clones that gave the most robust inhibition of adenylate cyclase in response to histamine were used for further study.
{^3H}-N-methylhistamine Binding
Cell pellets from histamine H3 receptor-expressing SK-N-MC cells were homogenized in 20 mM Tris HCl/0.5 mM EDTA. Supernatants from an 800 g spin were collected, recentrifuged at 30,000 g for 30 min. Pellets were re-homogenized in 50 mM Tris/5 mM EDTA (pH 7.4). Membranes were incubated with 0.8 nM {^3H}-N-methylhistamine plus/minus test compounds for 45 min at 25° C. and harvested by rapid filtration over GF/C glass fiber filters (pretreated with 0.3% polyethylenimine) followed by four washes with ice-cold buffer. Filters were dried, added to 4 mL scintillation cocktail and then counted on a liquid scintillation counter. Non-specific binding was defined with 10 μM histamine. The pKi values were calculated based on a Kd of 800 pM and a ligand concentration ({L}) of 800 pM according to the formula: Ki=(IC50)/(1+({L}/(Kd))
The Ki is a dissociation constant, usually derived from enzyme kinetics or from competition with a known ligand. Higher therefore signals lower affinity. `c1ccc(N2CCC(CN3CCCCC3)CC2)c(CN2CCOCC2)c1` [Example 22, 4-{2-(4-piperidin-1-ylmethyl-piperidin-1-yl)-benzyl}-morpholine] gave a Ki of 4500 nM.

In the case of `c1cc(N2CCC(CNC3CCCCC3)CC2)ccc1CN1CCCC1` [Example 23, Cyclohexyl-{1-(4-pyrrolidin-1-ylmethyl-phenyl)-piperidin-4-ylmethyl}-amine], the inhibition constant Ki came to 0.9 nM.

Molecule `c1cc(N2CCC(CN3CCCCCCCCCCCC3)CC2)ccc1CN1CCCC1` [Example 24, 1-{1-(4-Pyrrolidin-1-ylmethyl-phenyl)-piperidin-4-ylmethyl}-azacyclotridecane] displayed a Ki of 23 nM.

The molecule `CCN(CC)CC1CCN(c2ccc(CN3CCCC3)cc2)CC1` [Example 25, Diethyl-{1-(4-pyrrolidin-1-ylmethyl-phenyl)-piperidin-4-ylmethyl}-amine] registered a Ki of 0.8 nM.

Take `CN(C)CC1CCN(c2ccc(CN3CCCC3)cc2)CC1` [Example 26, Dimethyl-{1-(4-pyrrolidin-1-ylmethyl-phenyl)-piperidin-4-ylmethyl}-amine]: the inhibitory constant (Ki) was 1.7 nM.

Consider `CN1CCN(CC2CCN(c3ccc(CN4CCCC4)cc3)CC2)CC1` [Example 27, 1-Methyl-4-{1-(4-pyrrolidin-1-ylmethyl-phenyl)-piperidin-4-ylmethyl}-piperazine], for which the Ki stood at 1.4 nM. This Ki and that of the molecule before are within 1.5-fold of each other.

For the molecule `OC1CCN(CC2CCN(c3ccc(CN4CCCC4)cc3)CC2)CC1` [Example 28, 1-{1-(4-Pyrrolidin-1-ylmethyl-phenyl)-piperidin-4-ylmethyl}-piperidin-4-ol], the affinity, expressed as Ki, was 0.8 nM.

In turn, `c1cc(N2CCC(CN3CCSCC3)CC2)ccc1CN1CCCC1` [Example 29, 4-{1-(4-Pyrrolidin-1-ylmethyl-phenyl)-piperidin-4-ylmethyl}-thiomorpholine] gave a Ki of 2 nM. This Ki is about 2.5-fold higher than that of the molecule before.

The molecule `c1cc(N2CCC(CN3CCCCC3)CC2)ccc1CN1CCCC1` [Example 30, 1-{1-(4-Pyrrolidin-1-ylmethyl-phenyl)-piperidin-4-ylmethyl}-piperidine] returned a Ki of 1 nM.

With `c1cc(N2CCC(CN3CCOCC3)CC2)ccc1CN1CCCC1` [Example 31, 4-{1-(4-Pyrrolidin-1-ylmethyl-phenyl)-pieridin-4-ylmethyl}-morpholine], the affinity corresponds to a Ki of 2 nM. Compared with the last molecule, the Ki is about 2-fold higher.

`c1cc(CN2CCSCC2)cc(N2CCC(CN3CCCC3)CC2)c1` [Example 32, 4-{3-(4-Pyrrolidin-1-ylmethyl-piperidin-1-yl)-benzyl}-thiomorpholine]: the Ki was determined as 9 nM. Compared with the last molecule, the Ki is about 4.5-fold higher.

For `c1cc(CN2CCOCC2)cc(N2CCC(CN3CCCC3)CC2)c1` [Example 33, 4-{3-(4-Pyrrolidin-1-ylmethyl-piperidin-1-yl)-benzyl}-morpholine], the Ki turned out to be 20 nM. This Ki is about 2.2-fold higher than that of the molecule before.

As for `c1cc(CN2CCCC2)cc(N2CCC(CN3CCCC3)CC2)c1` [Example 34, 4-Pyrrolidin-1-ylmethyl-1-(3-pyrrolidin-1-ylmethyl-phenyl)-piperidine], affinity was put at a Ki of 6 nM.

Regarding `c1cc(CN2CCCCC2)cc(N2CCC(CN3CCCC3)CC2)c1` [Example 35, 1-{3-(4-pyrrolidin-1-ylmethyl-piperidin-1-yl)-benzyl}-piperidine], the affinity, expressed as Ki, was 10 nM. This Ki lies about 1.7-fold higher than the previous one.

Molecule `c1cc(N2CCC(CN3CCCC3)CC2)ccc1CN1CCCCCCCCCCCC1` [Example 36, 1-{4-(4-Pyrrolidin-1-ylmethyl-piperidin-1-yl)-benzyl}-azacyclotridecane] came in with a Ki of 6 nM.

`c1cc(N2CCC(CN3CCCC3)CC2)ccc1CNC1CCCCC1` [Example 37, Cyclohexyl-{4-(4-pyrrolidin-1-ylmethyl-piperidin-1-yl)-benzyl}-amine] gave a Ki of 2 nM.

Turning to `OC1CCN(Cc2ccc(N3CCC(CN4CCCC4)CC3)cc2)CC1` [Example 38, 1-{4-(4-Pyrrolidin-1-ylmethyl-piperidin-1-yl)-benzyl}-piperidin-4-ol], the Ki is 5 nM.

In the case of `CN1CCN(Cc2ccc(N3CCC(CN4CCCC4)CC3)cc2)CC1` [Example 39, 1-Methyl-4-{4-(4-pyrrolidin-1-ylmethyl-piperidin-1-yl)-benzyl}-piperazine], the Ki was determined as 6 nM.

In the case of `c1cc(N2CCC(CN3CCCC3)CC2)ccc1CN1CCSCC1` [Example 40, 4-{4-(4-Pyrrolidin-1-ylmethyl-piperidin-1-yl)-benzyl}-thiomorpholine], the Ki worked out at 4 nM.

The molecule `c1cc(N2CCC(CN3CCCC3)CC2)ccc1CN1CCOCC1` [Example 41, 4-{4-(4-Pyrrolidin-1-ylmethyl-piperidin-1-yl)-benzyl}-morpholine] displayed a Ki of 12 nM.

The molecule `CN(C)Cc1ccc(N2CCC(CN3CCCC3)CC2)cc1` [Example 42, Dimethyl-{4-(4-pyrrolidin-1-ylmethyl-piperidin-1-yl)-benzyl}-amine] returned a Ki of 5 nM.

The molecule `c1ccc(N2CCC(CN3CCCC3)CC2)c(CN2CCOCC2)c1` [Example 43, 4-{2-(4-Pyrrolidin-1-ylmethyl-piperidin-1-yl)-benzyl}-morpholine] registered a Ki of 4800 nM.

With `c1cc(N2CCC(CN3CCOCC3)CC2)ccc1CN1CCCCC1` [Example 44, 4-{1-(4-Piperidin-1-ylmethyl-phenyl)-piperidin-4-ylmethyl}-morpholine], affinity was put at a Ki of 5 nM.

The molecule `c1cc(N2CCC(CN3CCCC3)CC2)ccc1CN1CCCCC1` [Example 45, 1-{4-(4-Pyrrolidin-1-ylmethyl-piperidin-1-yl)-benzyl}-piperidine] came in with a Ki of 2 nM. This Ki lies about 2.5-fold lower than the previous one.

`c1cc(N2CCC(NC3CCCCC3)CC2)ccc1CN1CCOCC1` [Example 46, Cyclohexyl-{1-(4-morpholin-4-ylmethyl-phenyl)-piperidin-4-yl}-amine]: the Ki came to 28 nM.

Turning to `CN(C1CCCCC1)C1CCN(c2ccc(CN3CCOCC3)cc2)CC1` [Example 47, Cyclohexyl-methyl-{1-(4-morpholin-4-ylmethyl-phenyl)-piperidin-4-yl}-amine], the affinity, expressed as Ki, was 5.8 nM.

With `CN1CCN(C2CCN(c3ccc(CN4CCOCC4)cc3)CC2)CC1` [Example 48, 4-{4-{4-(4-Methyl-piperazin-1-yl)-piperidin-1-yl}-benzyl}-morpholine], the affinity, expressed as Ki, was 1000 nM. This Ki is about 170-fold higher than that of the molecule before.

On to `CCN(C)C1CCN(c2ccc(CN3CCOCC3)cc2)CC1` [Example 49, Ethyl-methyl-{1-(4-morpholin-4-ylmethyl-phenyl)-piperidin-4-yl}-amine], for which the Ki came to 14 nM.

In turn, `c1cc(N2CCC(N3CCOCC3)CC2)ccc1CN1CCOCC1` [Example 50, 4-{1-(4-Morpholin-4-ylmethyl-phenyl)-piperidin-4-yl}-morpholine] registered a Ki of 272 nM.

As for `c1cc(N2CCC(N3CCCC3)CC2)ccc1CN1CCOCC1` [Example 51, 4-{4-(4-Pyrrolidin-1-yl-pieridin-1-yl)-benzyl}-morpholine], the affinity corresponds to a Ki of 17 nM.

`c1cc(N2CCC(N3CCCCC3)CC2)ccc1CN1CCOCC1` [Example 52, 1′-(4-Morpholin-4-ylmethyl-phenyl)-{1,4′}bipiperidinyl]: affinity was put at a Ki of 5.5 nM.

As for `c1cc(N2CCC(N3CCCCC3)CC2)ccc1CN1CCCCC1` [Example 53, 1′-(4-Piperidin-1-ylmethyl-phenyl)-{1,4′}bipiperidinyl], the Ki was 2.7 nM.

As for `c1ccc(NCc2ccc(N3CCC(N4CCCCC4)CC3)cc2)nc1` [Example 54, (4-{1,4′}Bipiperidinyl-1′-yl-benzyl)-pyridin-2-yl-amine], the Ki came out at 8.4 nM.

For the molecule `c1ccc(NCC2CCN(c3ccc(CN4CCCC4)cc3)CC2)cc1` [Example 55, Phenyl-{1-(4-pyrrolidin-1-ylmethyl-phenyl)-piperidin-4-ylmethyl}-amine], the Ki was 8 nM.

In turn, `c1ccc(NCC2CCN(c3ccc(CN4CCCC4)cc3)CC2)nc1` [Example 56, Pyridin-2-yl-{1-(4-pyrrolidin-1-ylmethyl-phenyl)-piperidin-4-ylmethyl}-amine] registered a Ki of 3 nM. This Ki lies about 2.7-fold lower than the previous one.

`c1cc(N2CCC(CN3CCCCC3)CC2)ccc1CN1CCCCC1` [Example 57, 1-{1-(4-Piperidin-1-ylmethyl-phenyl)-piperidin-4-ylmethyl}-piperidine] had a Ki of 2.5 nM.

`c1cc(N2CCC(CN3CCCC3)CC2)ccc1CN1CCCC1` [Example 58, 4-Pyrrolidin-1-ylmethyl-1-(4-pyrrolidin-1-ylmethyl-phenyl)-piperidine] registered a Ki of 0.6 nM.

In turn, `Fc1ccc(NCc2ccc(N3CCC(CN4CCCC4)CC3)cc2)cc1` [Example 59, (4-Fluoro-phenyl)-{4-(4-pyrrolidin-1-ylmethyl-piperidin-1-yl)-benzyl}-amine] displayed a Ki of 48 nM.
